Blank lines part the entries; values can stand above or below the molecule they belong to.
Columns and labels:
[1] = relative thermodynamic stability of crystal forms (equilibration of suspensions); type: physicochemical; settings: for thermodynamic stability of the polymorph: in particular between 5° C. to 65° C.
Source text: Alternatively, Form A can be obtained upon equilibration of solid 7-(4,7-diazaspiro[2.5]octan-7-yl)-2-(2,8-dimethylimidazo[1,2-b]pyridazin-6-yl)pyrido[1,2-a]pyrimidin-4-one suspended in organic solvents or a mixture thereof for prolonged time. In particular 7-(4,7-diazaspiro[2.5]octan-7-yl)-2-(2,8-dimethylimidazo[1,2-b]pyridazin-6-yl)pyrido[1,2-a]pyrimidin-4-one can be suspended in ethanol, methyl ethyl ketone, ethyl acetate, or dioxane at ambient temperature or at elevated temperature (e.g. 22 to 65° C.) for 2-3 weeks affording 7-(4,7-diazaspiro[2.5]octan-7-yl)-2-(2,8-dimethylimidazo[1,2-b]pyridazin-6-yl)pyrido[1,2-a]pyrimidin-4-one as Form A.
Form D can be obtained by equilibration of solid 7-(4,7-diazaspiro[2.5]octan-7-yl)-2-(2,8-dimethylimidazo[1,2-b]pyridazin-6-yl)pyrido[1,2-a]pyrimidin-4-one suspended in water or water containing organic solvents for prolonged time. 7-(4,7-diazaspiro[2.5]octan-7-yl)-2-(2,8-dimethylimidazo[1,2-b]pyridazin-6-yl)pyrido[1,2-a]pyrimidin-4-one can be suspended in water or mixtures of organic solvent and water, in particular in ethanol/water mixtures. In particular, the mixture can be left in equilibration for 2-3 weeks in water or in ethanol/water 20/80 v/v at 65° C. to afford 7-(4,7-diazaspiro[2.5]octan-7-yl)-2-(2,8-dimethylimidazo[1,2-b]pyridazin-6-yl)pyrido[1,2-a]pyrimidin-4-one as Form D. In particular, the mixture can be left in equilibration for 2-3 weeks in water or in ethanol/water 20/80 v/v to 50/50 v/v to 80/20 v/v at approx. 22° C. to afford 7-(4,7-diazaspiro[2.5]octan-7-yl)-2-(2,8-dimethylimidazo[1,2-b]pyridazin-6-yl)pyrido[1,2-a]pyrimidin-4-one as Form D.

[2] = chemical stability of the solid form; type: physicochemical; settings: compared to Form D
[3] = hygroscopicity (water uptake according to European Pharmacopoeia); type: physicochemical
[4] = tested on: exon 7 of SMN1 and/or SMN2; assay: inclusion of exon 7 into mRNA transcribed from the SMN1 and/or SMN2 gene; settings: increasing expression of SMN protein in a human subject

stability of the hydrated form ([1]; with sufficiently high water activity): stable hydrated form
SMILES: Cc1cn2nc(-c3cc(=O)n4cc(N5CCNC6(CC6)C5)ccc4n3)cc(C)c2n1 [Form D, 7-(4,7-diazaspiro[2.5]octan-7-yl)-2-(2,8-dimethylimidazo[1,2-b]pyridazin-6-yl)pyrido[1,2-a]pyrimidin-4-one]

thermodynamic stability of the polymorph [1]: metastable polymorph
SMILES: Cc1cn2nc(-c3cc(=O)n4cc(N5CCNC6(CC6)C5)ccc4n3)cc(C)c2n1 [Form B, 7-(4,7-diazaspiro[2.5]octan-7-yl)-2-(2,8-dimethylimidazo[1,2-b]pyridazin-6-yl)pyrido[1,2-a]pyrimidin-4-one]

Continued, molecule first:

SMILES: Cc1cn2nc(-c3cc(=O)n4cc(N5CCNC6(CC6)C5)ccc4n3)cc(C)c2n1 [Form G, 7-(4,7-diazaspiro[2.5]octan-7-yl)-2-(2,8-dimethylimidazo[1,2-b]pyridazin-6-yl)pyrido[1,2-a]pyrimidin-4-one]
thermodynamic stability of the polymorph [1]: metastable polymorph

SMILES: Cc1cn2nc(-c3cc(=O)n4cc(N5CCNC6(CC6)C5)ccc4n3)cc(C)c2n1 [Form A, 7-(4,7-diazaspiro[2.5]octan-7-yl)-2-(2,8-dimethylimidazo[1,2-b]pyridazin-6-yl)pyrido[1,2-a]pyrimidin-4-one]
chemical stability [2]: improved chemical stability
hygroscopicity [3]: non-hygroscopic to slightly hygroscopic
water uptake [3]: < 2%
thermodynamic stability of the polymorph [1]: thermodynamic stable polymorph

SMILES: Cc1cn2nc(-c3cc(=O)n4cc(N5CCNC6(CC6)C5)ccc4n3)cc(C)c2n1 [compound of formula (I), 7-(4,7-diazaspiro[2.5]octan-7-yl)-2-(2,8-dimethylimidazo[1,2-b]pyridazin-6-yl)pyrido[1,2-a]pyrimidin-4-one]
inclusion of exon 7 of SMN1 and/or SMN2 into mRNA [4]: enhance inclusion of exon 7
